Results reported in PMC12867150, “A fungi-derived cyclic peptide enhances Th9-mediated antitumor immunity by targeting ZAP70 and SREBP1” (The Journal of Clinical Investigation, 2025).
Where “and” joins values, the source holds several entries; their conditions need not be identical. Identical values can stand only once. Counter-ions that a name gives are not always drawn.

What was measured:
[1] = tested on: human Th9 cells; assay: Human Th9 differentiation, IL-9 by flow cytometry (Figure 8A-B, S9A); assay type: cell-based; conditions: for IL-9 production in human CD4⁺ T cells (flow cytometric analysis): Figure 8B, Th9-polarizing conditions, individual replicates, one per column (n = 4); for intracellular IL-9 expression in human Th9 cells: flow cytometry, Supplemental Figure 9A
Procedure: Naive human CD4^+ T cells were isolated from PBMCs obtained from healthy donors using the EasySep Human Naive CD4^+ T Cell Isolation Kit II ([…] Technologies, catalog 17555), according to the manufacturer’s protocol. Isolated T cells were cultured in OptiVitro T Cell Medium SF (Excell Bio, catalog TE000-N022) supplemented with recombinant human IL-2 (100 U/mL, Novoprotein, catalog C013). T cell activation was achieved using plate-bound anti-CD3 (5 μg/mL) and soluble anti-CD28 antibodies (2 μg/mL).
For Th9 polarization, cultures were supplemented with IL-4 (10 ng/mL, PeproTech, catalog AF-200-04), TGF-β (1 ng/mL), and neutralizing anti–IFN-γ monoclonal antibody (10 μg/mL, clone B27, BioXcell, catalog BE0245). After 3 days of initial culture, cells were either collected for downstream assays or continued in extended culture with refreshed cytokines to maintain lineage commitment without antibodies. Th9 cells were collected at days 4, 5, and 6 for subsequent in vitro assays. For adoptive transfer studies, day 4–cultured Th9 cells were washed and prepared for intravenous injection.
(§1) Details regarding staining panels (human and mouse), reagents (including clones and catalog numbers), acquisition settings, compensation/controls, and analysis procedures are provided in Supplemental Methods.
MH9A4, Biolegend, Cat. No. 507605, PE/Cy7, clone MH9A4, Biolegend, Cat. No. […]
clone Mab11, Biolegend, Cat. No. 502908), Perforin (APC, clone dG9, Biolegend, Cat.
Flow cytometric acquisition was performed using a BD Fortessa or Cytek Aurora cytometer. Data were analyzed with FlowJo software (v10.8.1 or newer). Fluorescence compensation, isotype-matched controls, and fluorescence-minus-one (FMO) controls were applied as appropriate for multicolor panel validation. […]

[2] = tested on: phosphorylated ZAP70; assay: Flow cytometry of phosphorylated ZAP70 in Th9 cells (Figure 5E); assay type: cell-based, mouse; conditions: 30 minutes after activation; result in words
Procedure: as §1
BioLegend, Cat. No. 422301 or Mouse TruStain FcX™, BioLegend, Cat. No. 101319) for 10 minutes at 4°C. For surface marker detection, cells were stained with fluorochrome-conjugated monoclonal antibodies in 96-well V-bottom plates and incubated on ice for 30 minutes. After staining, cells were washed twice and resuspended in FACS buffer for analysis.
Prior to intracellular cytokine staining, cells were restimulated for 4 hours with PMA (Absin, Cat. No. abs9107), ionomycin (Sigma-Aldrich, Cat. No. I0634), and brefeldin A (MedChemExpress, Cat. No. HY-16592). For intracellular cytokine staining, cells were first surface-stained as described above, then fixed and permeabilized using the BD Cytofix/Cytoperm™ kit (BD Biosciences, Cat. No. 554714) according to the manufacturer ’s protocol. Intracellular proteins were stained with directly conjugated antibodies targeting IL-9, IL-17a, IL-4, IFN-γ, TNF-α, FOXP3, p-ZAP70, Perforin, and […]
Antibodies used for mouse samples included those against IL-9 (PE, clone RM9A4, Biolegend, Cat. No. 514104), IFN-γ (PE, clone XMG1.2, Biolegend, Cat. No.
Cat. No. 103138), CD4 (APC/Cy7, clone E-AB-F1353UJ, Elabscience, Cat. No. […]

| Molecule | IL-9 production in human CD4⁺ T cells (flow cytometric analysis) ([1]; Day5) | IL-9 production in human CD4⁺ T cells (flow cytometric analysis) ([1]; Day6) | IL-9 expression, human Th9 ([1]; day 5 to day 6, result in words) | intracellular IL-9 expression in human Th9 cells ([1]; replicate 1) | intracellular IL-9 expression in human Th9 cells ([1]; replicate 2) | intracellular IL-9 expression in human Th9 cells ([1]; replicate 3) | intracellular IL-9 expression in human Th9 cells ([1]; replicate 4) | ZAP70 phosphorylation [2] | IL-9 production, human EpA-Th9 ([1]; with fatostatin, result in words) |
| --- | --- | --- | --- | --- | --- | --- | --- | --- | --- |
| anteiso-C15 Leu7 surfactin [EpA] | 43.3 and 42.8 and 42.9 and 42 | 34.5 and 32.5 and 32.7 and 34.1 | significantly elevated IL-9 expression | 22% | 24.8% | 22.1% | 24.3% | significantly enhanced ZAP70 phosphorylation | – |
| CCCc1cc(-c2nc(-c3ccc(C)cc3)cs2)ccn1 [fatostatin, fatostatin hydrobromide, reference compound] | – | – | – | 23.3% | 24.1% | 23.7% | 23.5% | – | further augmented |
